Measured values taken from PMC7282810, “Existence and functions of a kisspeptin neuropeptide signaling system in a non-chordate deuterostome species” (eLife, 2020).
“Also recorded” adds a separate entry of the source. *1 amine or outer side, *2 acyl side, *3 side chain or, on linkers, in order; H or OH if unused. Where a SMILES comes first, the peptide text is derived from it. Bridges are numbered along the chain shown (N, C = ends). [ ]: non-standard residue; d: D form. The star is where a group is joined. Leu(3R-OH,Nα-propionyl) = CCC(=O)N[C@H](C(=O)*)[C@H](O)C(C)C; X1 = CC(C)[C@@H](O[*:3])[C@H](N[*:1])C(=O)[*:2]; NMeT = CN[C@H](C(=O)O)[C@@H](C)O; dPhLac = O=C(O)[C@H](O)Cc1ccccc1; NMeA = CN[C@@H](C)C(=O)O; NMeDha = C=C(NC)C(=O)O

Columns and labels:
Assay type in all cases: cell-based
AjKissR1 [1] = target: T1, AjKissR1 (Apostichopus japonicus, UniProt A0A5B7LK60); assay: cell-based; conditions: for Effect of inhibitor pre-treatment on AjKiss1a/AjKiss1b-elicited Ca2+ mobilization (in words): 100 nM AjKiss1a or AjKiss1b, pre-treated 12 hr PTX 100 ng/mL, or 1 hr FR900359 1.0 μM, U73122 10 μM, BAPTA-AM 100.0 μM, EGTA 5.0 mM; for Potency in triggering intracellular Ca2+ mobilization via AjKissR1 (in words): HEK293, Fura-2/AM, vertebrate kisspeptins and FITC-AjKiss1a at 1.0 μM
T1 sequence (A0A5B7LK60 1-378): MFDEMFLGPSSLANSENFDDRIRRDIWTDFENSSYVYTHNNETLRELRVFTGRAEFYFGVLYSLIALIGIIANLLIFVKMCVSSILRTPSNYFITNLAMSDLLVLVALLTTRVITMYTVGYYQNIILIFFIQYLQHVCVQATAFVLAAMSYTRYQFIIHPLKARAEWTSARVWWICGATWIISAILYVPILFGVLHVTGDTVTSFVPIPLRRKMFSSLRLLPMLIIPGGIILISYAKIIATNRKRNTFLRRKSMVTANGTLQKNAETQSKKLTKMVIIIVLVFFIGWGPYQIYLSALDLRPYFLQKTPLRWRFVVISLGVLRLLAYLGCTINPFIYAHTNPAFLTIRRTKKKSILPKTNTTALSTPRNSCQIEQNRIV
Experimental: (§1) The fluorescent Ca^2+ indicator Fura-2/AM was used to detect intracellular calcium flux ([Li et al., 2010]). Briefly, the HEK293 cells expressing the AjKissR1, AjKissR2 or vertebrate kisspeptin receptor were washed twice with PBS and suspended at 5 × 10^6 cells/mL in Hanks’ balanced salt solution. The cells were then loaded with 3.0 μM Fura-2/AM for 30 min and washed twice in Hanks’ solution. They were then stimulated with the indicated concentrations of different predicted A. japonicus kisspeptins or vertebrate kisspeptins. Finally, intracellular calcium flux was measured for 60 s, by determining the ratio of excitation wavelengths at 340 and 380 nm using a fluorescence spectrometer (Infinite 200 PRO, Tecan, Männedorf, Switzerland). All of the experiments for measuring Ca^2+ mobilization were repeated independently at least three times.

AjKissR2 [2] = target: T2, AjKissR2 (Apostichopus japonicus, UniProt A0A5B7LIE4); assay: cell-based; conditions: for Effect of inhibitor pre-treatment on AjKiss1a/AjKiss1b-elicited Ca2+ mobilization (in words): 100 nM AjKiss1a or AjKiss1b, pre-treated 12 hr PTX 100 ng/mL, or 1 hr FR900359 1.0 μM, U73122 10 μM, BAPTA-AM 100.0 μM, EGTA 5.0 mM; for Potency in triggering intracellular Ca2+ mobilization via AjKissR2 (in words): HEK293, Fura-2/AM, vertebrate kisspeptins and FITC-AjKiss1a at 1.0 μM
T2 sequence (A0A5B7LIE4 1-327): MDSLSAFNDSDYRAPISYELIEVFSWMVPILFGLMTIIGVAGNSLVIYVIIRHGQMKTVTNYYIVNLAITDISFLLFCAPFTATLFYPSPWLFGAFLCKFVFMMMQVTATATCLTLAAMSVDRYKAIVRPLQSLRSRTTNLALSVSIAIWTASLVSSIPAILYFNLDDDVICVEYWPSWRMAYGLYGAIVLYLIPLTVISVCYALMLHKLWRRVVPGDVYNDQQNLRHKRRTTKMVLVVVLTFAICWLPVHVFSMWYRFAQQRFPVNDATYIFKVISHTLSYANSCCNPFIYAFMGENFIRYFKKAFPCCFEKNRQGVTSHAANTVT
Experimental: as §1

AjKissR1 [3] = target: T1, AjKissR1; assay: ERK1/2 phosphorylation (western blot) in HEK293 cells expressing FLAG-AjKissR1; conditions: pre-treated 1 hr, U73122 10 μM, Gö6983 1.0 μM; AjKiss1b-10 1.0 μM
Experimental: (§2) To examine the phosphorylation of ERK, cells that expressed AjKissr1/2 or other GPR54s were incubated for the indicated times with different concentrations of kisspeptins. Subsequently, cells were lysed with lysis buffer (Beyotime) that contained protease inhibitor (Roche) at 4°C for 30 min on a rocker and then scraped. Proteins were then electrophoresed on a 10% SDS polyacrylamide gel and transferred to polyvinylidene difluoride (PVDF) membranes. Membranes were blocked with 5% skimmed milk, then probed with rabbit anti-phospho-ERK1/2(Thr^202/Tyr^204) antibody (1:2000; Cell Signaling Technology), followed by detection using HRP-conjugated goat anti-rabbit IgG (Beyotime). Blots were stripped and reprobed using anti-ERK1/2 antibody (1:2000; Cell Signaling Technology) as a control for protein loading.
(§3) Immunoreactive bands were detected with an enhanced chemiluminescent substrate (Beyotime), and the membrane was scanned using a Tanon 5200 Chemiluminescent Imaging System (Tanon Science and Technology, Shanghai, China).

AjKissR2 [4] = target: T2, AjKissR2; assay: ERK1/2 phosphorylation (western blot) in HEK293 cells expressing FLAG-AjKissR2; conditions: pre-treated 1 hr, U73122 10 μM, Gö6983 1.0 μM; AjKiss1b-10 1.0 μM
Experimental: as §2, §3

Compound: CC(=O)OCOC(=O)CN(CC(=O)OCOC(C)=O)c1ccccc1OCCOc1ccccc1N(CC(=O)OCOC(C)=O)CC(=O)OCOC(C)=O [BAPTA-AM, 1,2-bis(o-aminophenoxy)ethane N,N,N',N'-tetraacetic acid acetoxymethyl ester, reference compound]
- Effect of inhibitor pre-treatment on AjKiss1a/AjKiss1b-elicited Ca2+ mobilization (in words) (AjKissR1 [1]): significantly attenuated
- Effect of inhibitor pre-treatment on AjKiss1a/AjKiss1b-elicited Ca2+ mobilization (in words) (AjKissR2 [2]): significantly attenuated

Compound: O=C(O)CN(CCOCCOCCN(CC(=O)O)CC(=O)O)CC(=O)O [EGTA, reference compound]
- Effect of inhibitor pre-treatment on AjKiss1a/AjKiss1b-elicited Ca2+ mobilization (in words) (AjKissR1 [1]): significantly attenuated
- Effect of inhibitor pre-treatment on AjKiss1a/AjKiss1b-elicited Ca2+ mobilization (in words) (AjKissR2 [2]): significantly attenuated

Compound: C=C1C(=O)N[C@@H](C)C(=O)N(C)[C@@H](C)C(=O)N[C@@H]([C@H](OC(=O)[C@@H](NC(=O)CC)[C@H](O)C(C)C)C(C)C)C(=O)N(C)[C@@H]([C@@H](C)OC)C(=O)O[C@H](C(C)C)[C@H](NC(C)=O)C(=O)O[C@H](Cc2ccccc2)C(=O)N1C [FR900359, reference compound] (Ac-[X1][dPhLac][NMeDha]A[NMeA][X1](Leu(3R-OH,Nα-propionyl))[NMeT](Me); ester 1-C)
- Effect of inhibitor pre-treatment on AjKiss1a/AjKiss1b-elicited Ca2+ mobilization (in words) (AjKissR1 [1]): completely blocked
- Effect of inhibitor pre-treatment on AjKiss1a/AjKiss1b-elicited Ca2+ mobilization (in words) (AjKissR2 [2]): completely blocked

Compound: COc1ccc2c(c1)c(C1=C(c3c[nH]c4ccccc34)C(=O)NC1=O)cn2CCCN(C)C [Gö6983]
- Effect of inhibitor on AjKiss1b-10-activated ERK1/2 phosphorylation (in words) (AjKissR1 [3]): significantly blocked
- Effect of inhibitor on AjKiss1b-10-activated ERK1/2 phosphorylation (in words) (AjKissR2 [4]): significantly blocked

Compound: COc1ccc2c(c1)CC[C@@H]1[C@@H]2CC[C@]2(C)[C@@H](NCCCCCCN3C(=O)C=CC3=O)CC[C@@H]12 [U73122, reference compound]
- Effect of inhibitor pre-treatment on AjKiss1a/AjKiss1b-elicited Ca2+ mobilization (in words) (AjKissR1 [1]): significantly attenuated
- Effect of inhibitor pre-treatment on AjKiss1a/AjKiss1b-elicited Ca2+ mobilization (in words) (AjKissR2 [2]): significantly attenuated
- Effect of inhibitor on AjKiss1b-10-activated ERK1/2 phosphorylation (in words) (AjKissR1 [3]): significantly blocked
- Effect of inhibitor on AjKiss1b-10-activated ERK1/2 phosphorylation (in words) (AjKissR2 [4]): significantly blocked

Compound: AHYRTLPF-NH2 [AjKiss1a-10, truncated peptide of AjKiss1a]
- Potency in triggering intracellular Ca2+ mobilization via AjKissR1 (in words) (AjKissR1 [1]): failed to activate
- Potency in triggering intracellular Ca2+ mobilization via AjKissR2 (in words) (AjKissR2 [2]): failed to activate

Compound: FITC–AGSLDc < CLEASC > EDVERRGRQPNRNAHYRTLPF-NH2 (disulfide) [FITC–AjKiss1a]
- Potency in triggering intracellular Ca2+ mobilization via AjKissR1 (in words) (AjKissR1 [1]): comparable to that induced by the wild-type neuropeptide
- Potency in triggering intracellular Ca2+ mobilization via AjKissR2 (in words) (AjKissR2 [2]): comparable to that induced by the wild-type neuropeptide

Compound: FNYNPFGLRF-NH2 [DrKiss2-10, synthetic zebrafish kisspeptin decapeptide, reference compound]
- Potency in triggering intracellular Ca2+ mobilization via AjKissR1 (in words) (AjKissR1 [1]): much lower potency; also recorded: potent
- Potency in triggering intracellular Ca2+ mobilization via AjKissR2 (in words) (AjKissR2 [2]): higher potency than that of HsKiss1-10; also recorded: potent
